What was measured:
[1] = system: Puccinia recondita f. sp. tritici; experiment: Puccinia recondita f. sp. tritici / wheat / leaf disc preventative (brown rust); type: in vivo; details: foliar, wheat leaf segments cv. Kanzler, inoculated 1 day after application, assessed 7-9 days after application, read-out: control of Puccinia recondita f. sp. tritici compared to untreated control
Protocol: Leaf disks or leaf segments of various plant species are cut from plants grown in a greenhouse. The cut leaf disks or segments are placed in multiwell plates (24-well format) onto water agar. The leaf disks are sprayed with a test solution before (preventative) or after (curative) inoculation. Compounds to be tested are prepared as DMSO solutions (max. 10 mg/ml) which are diluted to the appropriate concentration with 0.025% Tween20 just before spraying. The inoculated leaf disks or segments are incubated under defined conditions (temperature, relative humidity, light, etc.) according to the respective test system. A single evaluation of disease level is carried out 3 to 14 days after inoculation, depending on the pathosystem. Percent disease control relative to the untreated check leaf disks or segments is then calculated. Wheat leaf segments cv. Kanzler are placed on agar in multiwell plates (24-well format) and sprayed with the formulated test compound diluted in water. The leaf disks are inoculated with a spore suspension of the fungus 1 day after application. The inoculated leaf segments are incubated at 19° C. and 75% rh under a light regime of 12 h light/12 h darkness in a climate cabinet and the activity of a compound is assessed as percent disease control compared to untreated when an appropriate level of disease damage appears in untreated check leaf segments (7-9 days after application).

[2] = system: Puccinia recondita f. sp. tritici; experiment: Puccinia recondita f. sp. tritici / wheat / leaf disc curative (brown rust); type: in vivo; details: foliar, wheat leaf segments cv. Kanzler, applied 1 day after inoculation, assessed 6-8 days after application, read-out: control of Puccinia recondita f. sp. tritici compared to untreated control
Protocol: Leaf disks or leaf segments of various plant species are cut from plants grown in a greenhouse. The cut leaf disks or segments are placed in multiwell plates (24-well format) onto water agar. The leaf disks are sprayed with a test solution before (preventative) or after (curative) inoculation. Compounds to be tested are prepared as DMSO solutions (max. 10 mg/ml) which are diluted to the appropriate concentration with 0.025% Tween20 just before spraying. The inoculated leaf disks or segments are incubated under defined conditions (temperature, relative humidity, light, etc.) according to the respective test system. A single evaluation of disease level is carried out 3 to 14 days after inoculation, depending on the pathosystem. Percent disease control relative to the untreated check leaf disks or segments is then calculated. Wheat leaf segments cv. Kanzler are placed on agar in multiwell plates (24-well format). The leaf segments are inoculated with a spore suspension of the fungus. Plates are stored in darkness at 19° C. and 75% rh. The formulated test compound diluted in water is applied 1 day after inoculation. The leaf segments are incubated at 19° C. and 75% rh under a light regime of 12 h light/12 h darkness in a climate cabinet and the activity of a compound is assessed as percent disease control compared to untreated when an appropriate level of disease damage appears in untreated check leaf segments (6-8 days after application).

Phakopsora pachyrhizi = Phakopsora pachyrhizi / soybean / leaf disc preventative (Asian soybean rust); type: in vivo; details: foliar, soybean leaf disks, inoculated one day after application, assessed 12-14 days after application, read-out: control of Phakopsora pachyrhizi compared to untreated control
Protocol: Leaf disks or leaf segments of various plant species are cut from plants grown in a greenhouse. The cut leaf disks or segments are placed in multiwell plates (24-well format) onto water agar. The leaf disks are sprayed with a test solution before (preventative) or after (curative) inoculation. Compounds to be tested are prepared as DMSO solutions (max. 10 mg/ml) which are diluted to the appropriate concentration with 0.025% Tween20 just before spraying. The inoculated leaf disks or segments are incubated under defined conditions (temperature, relative humidity, light, etc.) according to the respective test system. A single evaluation of disease level is carried out 3 to 14 days after inoculation, depending on the pathosystem. Percent disease control relative to the untreated check leaf disks or segments is then calculated. Soybean leaf disks are placed on water agar in multiwell plates (24-well format) and sprayed with the formulated test compound diluted in water. One day after application leaf discs are inoculated by spraying a spore suspension on the lower leaf surface. After an incubation period in a climate cabinet of 24-36 hours in darkness at 20° C. and 75% rh leaf disc are kept at 20° C. with 12 h light/12 h darkness and 75% rh. The activity of a compound is assessed as percent disease control compared to untreated when an appropriate level of disease damage appears in untreated check leaf disks (12-14 days after application).

[3] = system: Glomerella lagenarium (Colletotrichum lagenarium); experiment: Glomerella lagenarium (Colletotrichum lagenarium) liquid culture / cucumber / preventative (anthracnose); type: cell-based; details: Colletotrichum orbiculare, liquid culture in PDB, 24° C., 3-4 days after application, read-out: control of Glomerella lagenarium compared to untreated control (inhibition of growth, photometric)
Protocol: Mycelia fragments or conidia suspensions of a fungus prepared either freshly from liquid cultures of the fungus or from cryogenic storage, are directly mixed into nutrient broth. DMSO solutions of the test compound (max. 10 mg/ml) are diluted with 0.025% Tween20 by a factor of 50 and 10 μl of this solution is pipetted into a microtiter plate (96-well format). The nutrient broth containing the fungal spores/mycelia fragments is then added to give an end concentration of the tested compound. The test plates are incubated in the dark at 24° C. and 96% relative humidity. The inhibition of fungal growth is determined photometrically after 2 to 7 days, depending on the pathosystem, and percent antifungal activity relative to the untreated check is calculated. Conidia of the fungus from cryogenic storage are directly mixed into nutrient broth (PDB potato dextrose broth). After placing a (DMSO) solution of test compound into a microtiter plate (96-well format), the nutrient broth containing the fungal spores is added. The test plates are incubated at 24° C. and the inhibition of growth is measured photometrically 3-4 days after application.

Uromyces viciae-fabae = Uromyces viciae-fabae / field bean / leaf disc preventative (faba-bean rust); type: in vivo; details: foliar, 288 h, 100 ppm in the applied formulation, field bean leaf discs, inoculated two hours after application, 12 days after application, read-out: disease control compared to untreated control leaf discs
Protocol: Leaf disks or leaf segments of various plant species are cut from plants grown in a greenhouse. The cut leaf disks or segments are placed in multiwell plates (24-well format) onto water agar. The leaf disks are sprayed with a test solution before (preventative) or after (curative) inoculation. Compounds to be tested are prepared as DMSO solutions (max. 10 mg/ml) which are diluted to the appropriate concentration with 0.025% Tween20 just before spraying. The inoculated leaf disks or segments are incubated under defined conditions (temperature, relative humidity, light, etc.) according to the respective test system. A single evaluation of disease level is carried out 3 to 14 days after inoculation, depending on the pathosystem. Percent disease control relative to the untreated check leaf disks or segments is then calculated. Field bean leaf discs are placed on water agar in multiwell plates (96-well format) and 10 μl of the formulated test compound diluted in acetone and a spreader pipetted onto the leaf disc. Two hours after application leaf discs are inoculated by spraying a spore suspension on the lower leaf surface. The leaf discs are incubated in a climate cabinet at 22° C. with 18 hour day and 70% relative humidity. The activity of a compound is assessed as percent disease control compared to untreated when an appropriate level of disease damage appears in untreated check leaf disks (12 days after application).

COC(=O)C1(N(O)C(=O)c2ccc(-c3noc(C(F)(F)F)n3)cc2F)CCN(OC)CC1 [Compound 1.5, methyl 4-[[2-fluoro-4-[5-(trifluoromethyl)-1,2,4-oxadiazol-3-yl]benzoyl]-hydroxy-amino]-1-methoxy-piperidine-4-carboxylate]
≥ 80%: pest or weed control at 200 ppm [1] | pest or weed control at 200 ppm [2] | pest or weed control at 200 ppm (Phakopsora pachyrhizi) | inhibition at 20 ppm [3] | pest or weed control at 100 ppm (Uromyces viciae-fabae)

CON(Cc1ccccc1)C(=O)c1ccc(-c2noc(C(F)(F)F)n2)cc1F [Compound 1.6, N-benzyl-2-fluoro-N-methoxy-4-[5-(trifluoromethyl)-1,2,4-oxadiazol-3-yl]benzamide]
≥ 80%: pest or weed control at 200 ppm [1] | pest or weed control at 200 ppm [2] | pest or weed control at 200 ppm (Phakopsora pachyrhizi) | inhibition at 20 ppm [3] | pest or weed control at 100 ppm (Uromyces viciae-fabae)

CON(Cc1ccco1)C(=O)c1ccc(-c2noc(C(F)(F)F)n2)cc1F [Compound 1.7, 2-fluoro-N-(2-furylmethyl)-N-methoxy-4-[5-(trifluoromethyl)-1,2,4-oxadiazol-3-yl]benzamide]
≥ 80%: pest or weed control at 200 ppm [1] | pest or weed control at 200 ppm [2] | pest or weed control at 200 ppm (Phakopsora pachyrhizi) | inhibition at 20 ppm [3] | pest or weed control at 100 ppm (Uromyces viciae-fabae)

CON(CC1CC1)C(=O)c1ccc(-c2noc(C(F)(F)F)n2)cc1F [Compound 1.8, N-(cyclopropylmethyl)-2-fluoro-N-methoxy-4-[5-(trifluoromethyl)-1,2,4-oxadiazol-3-yl]benzamide]
≥ 80%: pest or weed control at 200 ppm [1] | pest or weed control at 200 ppm [2] | pest or weed control at 200 ppm (Phakopsora pachyrhizi) | inhibition at 20 ppm [3] | pest or weed control at 100 ppm (Uromyces viciae-fabae)

C#CCN(OC)C(=O)c1ccc(-c2noc(C(F)(F)F)n2)cc1F [Compound 1.10, 2-fluoro-N-methoxy-N-prop-2-ynyl-4-[5-(trifluoromethyl)-1,2,4-oxadiazol-3-yl]benzamide]
≥ 80%: pest or weed control at 200 ppm [1] | pest or weed control at 200 ppm [2] | pest or weed control at 200 ppm (Phakopsora pachyrhizi) | inhibition at 20 ppm [3] | pest or weed control at 100 ppm (Uromyces viciae-fabae)

CON(CC(=O)NC(C)(C)C)C(=O)c1ccc(-c2noc(C(F)(F)F)n2)cc1 [Compound 2.2, N-[2-(tert-butylamino)-2-oxo-ethyl]-N-methoxy-4-[5-(trifluoromethyl)-1,2,4-oxadiazol-3-yl]benzamide]
≥ 80%: pest or weed control at 200 ppm [1] | pest or weed control at 200 ppm [2] | pest or weed control at 200 ppm (Phakopsora pachyrhizi) | inhibition at 20 ppm [3] | pest or weed control at 100 ppm (Uromyces viciae-fabae)

O=C(NO)c1ccc(-c2noc(C(F)(F)F)n2)cc1 [Compound 2.4, 4-[5-(trifluoromethyl)-1,2,4-oxadiazol-3-yl]benzenecarbohydroxamic acid]
≥ 80%: pest or weed control at 200 ppm [1] | pest or weed control at 200 ppm [2] | pest or weed control at 200 ppm (Phakopsora pachyrhizi) | inhibition at 20 ppm [3] | pest or weed control at 100 ppm (Uromyces viciae-fabae)

CON(Cc1ccccc1)C(=O)c1ccc(-c2noc(C(F)(F)F)n2)cc1 [Compound 2.5, N-benzyl-N-methoxy-4-[5-(trifluoromethyl)-1,2,4-oxadiazol-3-yl]benzamide]
≥ 80%: pest or weed control at 200 ppm [1] | pest or weed control at 200 ppm [2] | pest or weed control at 200 ppm (Phakopsora pachyrhizi) | inhibition at 20 ppm [3] | pest or weed control at 100 ppm (Uromyces viciae-fabae)

C#CCN(OC)C(=O)c1ccc(-c2noc(C(F)(F)F)n2)cc1 [Compound 2.6, N-methoxy-N-prop-2-ynyl-4-[5-(trifluoromethyl)-1,2,4-oxadiazol-3-yl]benzamide]
≥ 80%: pest or weed control at 200 ppm [1] | pest or weed control at 200 ppm [2] | pest or weed control at 200 ppm (Phakopsora pachyrhizi) | inhibition at 20 ppm [3] | pest or weed control at 100 ppm (Uromyces viciae-fabae)

CON(CC=C(Cl)Cl)C(=O)c1ccc(-c2noc(C(F)(F)F)n2)cc1 [Compound 2.7, N-(3,3-dichloroallyl)-N-methoxy-4-[5-(trifluoromethyl)-1,2,4-oxadiazol-3-yl]benzamide]
≥ 80%: pest or weed control at 200 ppm [1] | pest or weed control at 200 ppm [2] | pest or weed control at 200 ppm (Phakopsora pachyrhizi) | inhibition at 20 ppm [3] | pest or weed control at 100 ppm (Uromyces viciae-fabae)

From patent US11154060B2, “Microbiocidal oxadiazole derivatives” (SYNGENTA PARTICIPATIONS AG, priority 2016, dated 2021)
